Experimental data reported in patent US4954509A, “Isoquinoline derivatives and their use as analgesics” (Dr. Lo. Zambeletti S.p.A., priority 1988, dated 1990).
Structures can show the parent of a compound that is named as a salt. Where two headings read alike, the source gives them in different places.

What was measured:
mice [1] = experiment: p-phenylquinone-induced abdominal writhing test in mice; type: in vivo, mouse (male Charles River, Swiss Strain); conditions: Mus musculus, sc, 20 min; subcutaneous; calculated as the free base; 20 min pretreatment, p-phenylquinone 2 mg/Kg i.p.
Experimental: (A) P-phenylquinone-induced abdominal writhing test in mice
The methodology employed is based on that described by Sigmund et al, Proc. Soc. Exptl. Biol. 95, 729/1957, modified by Milne and Twomey, Agents and Actions, 10, 31/1980.
Male Charles River mice (Swiss Strain), 25-36g body weight, were used. Animals were allowed food and water ad libitum and were randomized into groups of 10 prior to experimentation. Test compounds were dissolved in either distilled water or distilled water plus 0.1 M AMS, and administered by the subcutaneous route in a final volume of 10 ml/Kg. Control animals received 10 ml/Kg of the appropriate vehicle alone. Following a pretreatment period of 20 min., mice were injected intraperitoneally with p-phenylquinone, 2 mg/Kg at 37° C. in a final volume of […]. […] During this period the number of abdominal writhing responses per animal were recorded where writhing consists of an intermittent contraction of the abdomen associated with hind leg extension.
The degree of antinociceptive protection afforded by the test compound was determined as the mean number of writhing responses observed in the treated group (T) expressed as a percentage of the mean number of writhing responses in the control group (C) according to the following formula:
[1-(T/C]×100%=% graded protection

mice [2] = experiment: tail-flick test in mice; type: in vivo, mouse (male Charles River, Swiss Strain); conditions: Mus musculus, sc, 0.5 h, subcutaneous; calculated as the free base; 30 min pretreatment
Experimental: (B) Tail-flick test in mice
The methodology employed is based on that described by D'Amour and Smith, J. Pharmacol. Exp. Ther. 72, 74/1941.
Male Charles River mice (Swiss Strain), 22-34g body weight were used. Animals were allowed food and water ad libitum and were randomized into groups of 10 prior to experimentation.
Test compounds were dissolved in either distilled water or distilled water plus 0.1 M AMS and administered by the subcutaneous route in a final volume of 10 ml/Kg. Control animals received 10 ml/kg of the appropriate vehicle alone. Following a pretreatment period of 30 min., the mice were again placed under the heat source and the reaction tine re-determined.
Percentage quantal protection was determined as the number of mice in which the reaction time was doubled compared to pretreatment values, expressed as a percentage of the total number of mice in the group.

KAPPA opiate receptor = biological target: T1, KAPPA opiate receptor (Cavia porcellus, UniProt P41144); experiment: opiate receptors binding, KAPPA (3H-Ethyl Ketocyclazocine, guinea pig brain homogenate)
T1 construct: fresh guinea pig brain homogenate; from tissue; host or cells: guinea pig whole brain without cerebellum, fresh homogenate
Experimental: Radio receptor binding to μ and K sites is performed on fresh guinea pig brain homogenate prepared according to Kosterlitz. (1981).
(§1) Whole brain without cerebellum is homogenized in 50 mM, Tris-buffer (pH 7.4 at 0° C.) and centrifuged at 49,000×g×10 min.
The pellet is then resuspended in the same buffer, incubated at 37° C. for 45 min. and centrifuged again. 1.9ml of the final homogenate (1:100 in Tris-pH 7.4, 0° C.) is used for the binding assay. Binding to […] sites (Magnan J., 1982) 1 3H [D-Ala2, MePhe4, Gly-o15]Enkephalin (3H-DAGO), an
is determined in the presence of 10-6M Naloxone. 1 Binding to K sites (Magnan J., 1982)
The binding to the K-sites is performed using 3H-Ethyl Ketocyclazocine, a non-selective benzomorphan compound which binds to μ, δ and K-sites, in the presence of 100nM of unlabelled DAGO and 100nM of the enkephalin analogue [DAla^2 -DLeu^5 ]Enkephalin (DADLE), to prevent μ and δ binding respectively.
Final homogenate with solutions of the cold ligand and of the labelled ligand is incubated for 40 min. at 25° C., filtered through Whatman GF/C glass filter discs and washed.
The radioactivity bound to the filters is counted by liquid scintillation spectrophotometry.
The non-specific binding is determined in the presence of 500nM of the benzomorphan non-selective compound Mr 2266.
The equilibrium dissociation constant (KD) and the maximum binding capacity (Bmax) are determined from the analysis of saturation curves, while the inhibition constant (Ki) is determined from the analysis of competition experiments (Hill 1910; Scatchard 1949; Cheng and Prusoff 1973; Gillan et al. 1980).

MU opiate receptor = biological target: T2, MU opiate receptor (Cavia porcellus, UniProt A0ACM8Q262); experiment: opiate receptors binding, MU (3H-DAGO, guinea pig brain homogenate)
T2 construct: 3H-DAGO displacement
Experimental: Radio receptor binding to μ and K sites is performed on fresh guinea pig brain homogenate prepared according to Kosterlitz.
as §1
The pellet is then resuspended in the same buffer, incubated at 37° C. for 45 min. and centrifuged again. 1.9ml of the final homogenate (1:100 in Tris-pH 7.4, 0° C.) is used for the binding assay.
The filters are then dryed, solubilized in Filtercount and the radioactivity monitored. Non specific binding
is determined in the presence of 10-6M Naloxone.

[3] = fresh guinea pig brain homogenate, 3H-Ethyl Ketocyclazocine with 100nM DAGO and 100nM DADLE, 25° C., 40 min, read-out: OPIATE RECEPTORS BINDING KAPPA Ki
[4] = read-out: OPIATE RECEPTORS BINDING MU Ki, fresh guinea pig brain homogenate, 25° C., 40 min
[5] = fresh guinea pig brain homogenate, 25° C., 40 min, read-out: OPIATE RECEPTORS BINDING MU Ki

T2 sequence (A0ACM8Q262 1-400): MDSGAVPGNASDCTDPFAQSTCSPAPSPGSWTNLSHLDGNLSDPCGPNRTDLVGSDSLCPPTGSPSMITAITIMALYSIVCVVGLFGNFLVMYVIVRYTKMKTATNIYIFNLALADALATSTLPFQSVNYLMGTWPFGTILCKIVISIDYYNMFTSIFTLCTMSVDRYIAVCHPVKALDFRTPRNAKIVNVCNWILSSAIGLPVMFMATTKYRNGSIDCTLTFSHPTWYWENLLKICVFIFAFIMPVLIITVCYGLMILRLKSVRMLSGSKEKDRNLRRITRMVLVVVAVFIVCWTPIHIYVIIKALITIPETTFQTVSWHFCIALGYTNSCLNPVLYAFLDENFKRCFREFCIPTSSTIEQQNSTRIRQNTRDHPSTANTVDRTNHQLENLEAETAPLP
T1 sequence (P41144 whole entry): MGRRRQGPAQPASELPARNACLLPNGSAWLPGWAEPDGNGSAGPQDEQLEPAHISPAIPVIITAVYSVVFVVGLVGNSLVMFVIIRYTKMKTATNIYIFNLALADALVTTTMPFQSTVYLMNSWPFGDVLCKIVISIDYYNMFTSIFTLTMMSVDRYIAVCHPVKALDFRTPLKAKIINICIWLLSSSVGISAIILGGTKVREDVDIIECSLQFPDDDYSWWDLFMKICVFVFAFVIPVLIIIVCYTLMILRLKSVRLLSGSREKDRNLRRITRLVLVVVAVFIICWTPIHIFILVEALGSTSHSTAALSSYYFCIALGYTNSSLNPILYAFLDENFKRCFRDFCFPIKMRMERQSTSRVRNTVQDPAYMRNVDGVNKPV

| Structure (SMILES) | ED50 (mice [1]) | ED50 (mice [2]) | Ki (KAPPA opiate receptor; [3]) | Ki (MU opiate receptor; [4]) | Ki (KAPPA opiate receptor) | Ki (MU opiate receptor; [5]) |
| --- | --- | --- | --- | --- | --- | --- |
| C[C@@H]1CN(C(=O)Cc2ccc(Cl)c(Cl)c2)[C@@H](CN2CCCC2)c2ccccc21 (relative stereo) [Example 3, 1-(pyrrolidin-1-yl)methyl-2-(3,4-dichlorophenyl)acetyl-4-methyl-1,2,3,4-tetrahydroisoquinoline hydrochloride. Diastereoisomer TRANS] | 0.036 mg/kg | 0.046 mg/kg | 4.79 nM | 122 nM | – | – |
| C[C@H]1CN(C(=O)Cc2ccc(Cl)c(Cl)c2)[C@@H](CN2CCCC2)c2ccccc21 (relative stereo) [Example 4, 1-(pyrrolidin-1-yl)methyl-2-(3,4-dichlorophenyl)acetyl-4-methyl-1,2,3,4-tetrahydroisoquinoline hydrochloride. Diastereoisomer CIS] | 0.282 mg/kg | 0.459 mg/kg | 14 nM | 1150 nM | – | – |
| CC1Cc2ccccc2C(CN2CCCC2)N1C(=O)Cc1ccc(Cl)c(Cl)c1 (single isomer, unassigned) [Example 42, (-)-1-(pyrrolidin-1-yl)methyl-2-(3,4-dichlorophenyl)acetyl-3-methyl-1,2,3,4-tetrahydroisoquinoline D(-) tartrate] | 0.01 mg/kg | 0.021 mg/kg | 2.23 nM | 11.1 nM | – | – |
| O=C(Cc1ccc(Cl)c(Cl)c1)N1CCc2c(O)cccc2C1CN1CCCC1 (stereo not drawn) [Example 5, 1-(pyrrolidin-1-yl)methyl-2-(3,4-dichlorophenyl)acetyl-5-hydroxy-1,2,3,4-tetrahydroisoquinoline] | 0.005 mg/kg | 0.009 mg/kg | 0.423 nM | 0.69 nM | – | – |
| O=C(Cc1ccc(Cl)c(Cl)c1)N1CCc2cccc(Cl)c2C1CN1CCCC1 (stereo not drawn) [Example 27, 1-(pyrrolidin-1-yl)methyl-2-(3,4-dichlorophenyl)acetyl-8-chloro-1,2,3,4-tetrahydroisoquinoline hydrochloride 1/4hydrate] | – | 0.092 mg/kg | – | – | 5.46 nM | 369 nM |
| COc1cccc2c1CCN(C(=O)Cc1ccc(Cl)c(Cl)c1)C2CN1CCCC1 (stereo not drawn) [Example 6, 1-(pyrrolidin-1-Yl)methyl-2-(3,4-dichlorophenyl)acetyl-5-methoxy-1,2,3,4-tetrahydroisoquinoline] | 0.047 mg/kg | 0.054 mg/kg | – | – | 4.01 nM | 277 nM |
| CN(C)CC1c2cccc(O)c2CCN1C(=O)Cc1ccc(Cl)c(Cl)c1 (stereo not drawn) [Example 10, 1-dimethylaminomethyl-2-(3,4-dichlorophenyl) acetyl-5-hydroxy-1,2,3,4-tetrahydroisoquinoline.] | – | 0.088 mg/kg | 0.42 nM | 3.67 nM | – | – |
| C[C@@H]1Cc2ccccc2[C@H](CN2CCCC2)N1C(=O)Cc1ccc(Cl)c(Cl)c1 (relative stereo) [Example 1, 1-(pyrrolidin-1-yl)methyl-2-(3,4-dichlorophenyl)acetyl-3-methyl-1,2,3,4-tetrahydroisoquinoline hydrochloride 1/3 hydrate. Diastereoisomer CIS] | 0.021 mg/kg | 0.033 mg/kg | 2.65 nM | 14.9 nM | – | – |
| O=C(Cc1ccc(Cl)c(Cl)c1)N1CCc2cc(O)ccc2C1CN1CCCC1 (stereo not drawn) [Example 16, 1-(pyrrolidin-1-yl)methyl-2-(3,4-dichlorophenyl)acetyl-6-hydroxy-1,2,3,4-tetrahydroisoquinoline.] | – | 0.24 mg/kg | – | – | 1.54 nM | 102 nM |
